# From patent US20140187505A1, “Cardiac Glycosides to Treat Cystic Fibrosis and Other IL-8 Dependent Disorders” (priority 2002, published 2014)
# Where “and” joins values, the source holds several entries; their conditions need not be identical. Identical values can stand only once. Like-named read-outs stand apart in the source and are kept apart here.
# How the values were obtained:
# [1] = test system: IL-8 secretion from cystic fibrosis lung epithelial IB3-1 cells
# [2] = mobile phase: methanol/water 30:70; cited from earlier work
# [3] = eluent acetonitrile/water 45:55; cited from earlier work
# [4] = octanol/water (20 mM TRIS-HCl, pH 7.4); cited from earlier work
# [5] = test system: guinea-pig heart Na^+-K^+-ATPase; conditions: cited from earlier work
# [6] = test system: human vascular endothelial cells (HUVEC); conditions: in vitro, read-out: 50% kill concentration; cited from earlier work
# [7] = for 70 kg man; cited from earlier work
# [8] = test system: HeLa cervical cancer cells; assay: cells; conditions: Homo sapiens, 24 h, read-out: IC50 dose for cell death
# [9] = test system: HeLa cervical cancer cells; conditions: human
# [10] = Homo sapiens, IB3-1, 48 h, read-out: IC50 nmol/L in cells
# [11] = Homo sapiens, IB3-1, 48 h, read-out: IC50 (K50) for spontaneous IL-8 secretion
SMILES,"IC50 ([1]; read-out: IC50 nmol/L in cells, 50% suppression of spontaneous IL-8 secretion, IB3-1 cells, 48 hours) [nmol/L]","RM values (lipophilicity, reversed-phase thin layer chromatography) [2]",K retentions for reversed-phase high pressure liquid chromatography [3],P (partition coefficient in octanol/water system) [4],ID50 [5],"IC50 [1, 10] [nmol/L]",IC50 [6],Human toxicity limit [7] [nmol],"Human toxicity limit, Nmol/L = nM [7] [nM]","IC50 [1, 11] [nmol/L]",IC50 [8] [µM],Threshold concentration for an increase in cell death [9]
"CC(=O)O[C@H]1CC[C@]2(C=O)[C@H]3CC[C@]4(C)[C@@H](C5=CC(=O)OC5)CC[C@]4(O)[C@@H]3CC[C@]2(O)C1 [acetylstrophanthdin, acetyl-strophanthidin]",117,,,,,,,,,,,
C[C@]12CC[C@H](O)C[C@H]1CC[C@@H]1[C@@H]2CC[C@]2(C)[C@@H](C3=CC(=O)OC3)CC[C@]12O [digitoxigenin],,1.03,1.81,270.0 ± 94.1,1.63 ± 0.06 ×10^−4 mol l^−1,74,,,,,,
C[C@]12CC[C@H](O)C[C@H]1CC[C@@H]1[C@@H]2C[C@@H](O)[C@]2(C)[C@@H](C3=CC(=O)OC3)CC[C@]12O [digoxigenin],,,,13.5 ± 2.3,,34,,,,,,
C[C@H]1O[C@@H](O[C@H]2[C@@H](O)C[C@H](O[C@H]3[C@@H](O)C[C@H](O[C@H]4CC[C@@]5(C)[C@H](CC[C@@H]6[C@@H]5C[C@@H](O)[C@]5(C)[C@@H](C7=CC(=O)OC7)CC[C@]65O)C4)O[C@@H]3C)O[C@@H]2C)C[C@H](O)[C@@H]1O [digoxin],,0.25,0.50,,0.90 ± 0.07 ×10^−4 mol l^−1,27,~0.21 µM,1900,27.1,~27,,
CO[C@H]1C[C@H](O[C@H]2CC[C@@]3(C)[C@H](CC[C@@H]4[C@@H]3CC[C@]3(C)[C@@H](C5=CC(=O)OC5)[C@@H](OC(C)=O)C[C@]43O)C2)O[C@@H](C)[C@@H]1O [oleandrin],,,,,,2,,,,~2,~0.1,ca. 30 nM
C[C@@H]1O[C@@H](O[C@H]2C[C@@H](O)[C@]3(CO)[C@H]4[C@H](O)C[C@]5(C)[C@@H](C6=CC(=O)OC6)CC[C@]5(O)[C@@H]4CC[C@]3(O)C2)[C@H](O)[C@H](O)[C@H]1O [ouabain],,−0.73,0.14,0.02 and 0.02 ± 0.00,2.28 ± 0.10 ×10^−4 mol l^−1,8,0.24 µM and 0.357 µM and ~0.24 µM and ~0.357 µM,1683,,,~0.2,ca. 50 nM
